PMC12020424, “Identification and Validation of Cyclic Peptides with Mucin-Selective, Location-Specific Binding in the Gastrointestinal Tract” (ACS Nano, 2025)
Bridge positions count the residues as written; N and C are the ends. Ends that are not written are not given here.

Molecular target: MUC5AC (Homo sapiens, UniProt P98088)
Assay: Phage display (CX7C library) against MUC5AC, Sanger sequencing
Assay type: binding
Details: MUC5AC phage screening, third round of panning, 16 sequenced candidates
Method: For each mucin of interest, 5 μg of mucin protein was diluted in 150 μL of Tris-buffered saline (TBS) and added to 2 wells of a microtiter plate. The plate was left overnight in a humidified, sealed container with agitation at 50 rpm. After the overnight mucin coating, the solution was poured out, and 300 μL of blocking buffer was added to the wells for 1 h. After the 1 h waiting period, the blocking buffer was poured out, and the wells were washed three times with 300 μL of Tris-buffered saline with TBST (TBS + 0.1% (v/v) Tween-20) to remove nonspecific binding on the mucin layer coating. Next, 5 μL of the C7C library diluted with 95 μL of TBST was added to each blocked well and placed on shaker for 45 min, before pouring out the nonbinding phage and washing the plate ten times with TBST. A 0.2 M glycine-HCl elution buffer (pH 2.2, 100 μL) was added to each well and placed on a shaker for 20 min to release the mucin-layer binding peptides on the plate as unamplified eluate, with the pH neutralized by 30 μL of neutralization buffer (1 M Tris-HCl, pH 9).
E. coli liquid cultures were prepared by adding E. coli cells to 20 mL of LB media and placing them in shaking conditions at 37 °C and 250 rpm for 2 h and 45 min. The unamplified eluate (1 μL of which was saved for titering) was added to the E. coli cultures under the same conditions for 4 h and 45 min for amplification. […]

CTDKASSSC (disulfide 1-9 (inferred)) [Peptide M5.1, CX7C cyclic peptide hit for MUC5AC]
% Prevalence: 18.75%
